From patent US20040143025A1, “Carbon monoxide generating compunds for treatment of vascular, inflammatory and immune disorders” (priority 2002, published 2004)

What was measured:
rat liver [1] = system: rat liver; parameters: species or system Sprague Dawley (SD) rats; details: 2 h reperfusion, inhibitor given together with CO 300 ppm; for bile production / portal vein resistance: compared with CO alone
Text: Animals. Male Sprague Dawley (SD) rats weighing between 300-350 g (Harlan Sprague Dawley, Indianapolis, Ind.) were used. Animals were fed standard rodent chow and water and libitum and cared according to guidelines approved by the American Association of Laboratory Animal Care.
Isolated perfusion liver apparatus. An isolated perfusion liver apparatus was used, as described in Amersi et al., supra, and Maulik et al., Circulation 94:398-406 (1996). In brief, syngeneic rat blood, obtained for each experiment from four donor animals, was diluted to a hematocrit of 15% with Krebs Ringer Bicarbonate Buffer (mM: NaCl 118, KH2POF 1, MgSO4 0.9, CaCl2 2.5, dextrose 11.1, and NaHCO2 25), and maintained at pH of 7.4. The perfusate was pumped from a heated reservoir that warmed the perfusate to 37° C. through silastic tubing oxygenator connected to a flow meter that measured portal vein blood flow (Cole Palmer Instruments, Chicago, Ill.). Portal pressure was kept constant via a pressure monometer connected to a T fitting in the portal vein canula. […] During the experiment, pH, temperature and oxygenation were kept constant.
Ex vivo cold ischemia model. SD rats underwent isoflourane anesthesia and systemic heparinization. […] The livers were then stored for 24 h at 4° C. in UW solution, followed by ex-vivo reperfusion for 1-2 h on an isolated perfusion liver apparatus. Portal vein blood flow, pressure, and bile production were recorded every 30 min. Blood samples were collected at 30 min intervals and serum glutamic oxaloacetic transaminase (sGOT) levels were measured using an autoanalyzer from ANTECH Diagnostics (Irvine, Calif.). At the conclusion of experiment, a portion of the liver was snap frozen for mRNA extraction/Western blot analyses; the remaining samples were fixed in formalin for H&E staining.
The role of CO—HO-1 pathway in hepatic I/R injury was studied in five major treatment groups (n=4.8 rats/group). In Group 1, the extent of I/R injury was contrasted between livers perfused ex-vivo with blood saturated with CO (300 parts per million [ppm]; 0.03% balanced air) vs. air alone (21% O2). As NO may enhance HO-1 expression (Brouard et al., supra), we then investigated a link between the two gaseous molecules in Group 2 livers, which were perfused with CO supplemented with 25 mM NG-nitro-L-arginine methyl ester hydrochloride (L-NAME; Sigma Chemicals, St. Louis, Mo.), an inducible NO inhibitor. […] To analyze as to whether exogenous CO can substitute for HO-1 in preventing I/R insult, Group 4 rats were treated 24 h prior to liver procurement with ZnPP)(1.5 mg/kg/i.p; Porphyrin Products, Logan Utah), an HO-1 inhibitor, followed by ex vivo perfusion with CO. […] Brouard et al., supra. Therefore, Group 5 rats were pre-treated 60 min before harvest with p38 MAPK inhibitor, SB203580, a pyridinyl imidazol (25 mg/kg orally; Sigma). In addition, prior to reperfursion with CO, SB203580 (20 μM) was added to the perfusate.

rat liver [2] = assay: Histologic severity of I/R injury, Banff criteria; parameters: species or system Sprague Dawley (SD) rats; details: CO plus inhibitor, 2 h perfusion; scale 1-4
Text: Histology. Liver specimens were fixed in a 10% buffered formalin solution and embedded in paraffin. Sections were made at 4 μm and stained with H&E. The histologic severity of I/R injury was graded using International Banff Criteria (Int'l Banff Schema Conference Worksheet, The Third Int'l Banff Conference on Allograft Pathology, June 21-25 (1995)). Using these criteria, lobular disarray and ballooning changes are graded from 1-4, where no change is given a score of 1 and severe disarray or ballooning changes are given a score of 4.

HO-1 [3] = assay: HO-1 enzymatic activity in liver homogenates; type: biochemical, rat; details: liver after perfusion; ZnPP = 1.5 mg/kg i.p. 24 h before harvest then CO perfusion; CO = CO only
Procedure: HO-1 Enzymatic Activity. Livers were homogenized on ice in a Tris-HCl lysis buffer (pH 7.4) containing 0.5% Triton X-100 and protease inhibitors. Samples were frozen in small aliquots until use. Homogenates (100 μl) were mixed with 0.8 mM NADPH, 0.8 mM glucose-6-phosphate 1.0 unit G-60P dehydrogenase, 1 mM MgCl2 and […] purified rat liver biliverdin reductase at 4° C. The reaction was initiated by the addition of hemin (final concentration 0.25 mM). The reaction mixture was incubated at 37° C. in the dark for 15 min. At the end of incubation period, any insoluble material was removed by centrifugation and supernatants were analyzed for bilirubin concentration. An extinction coefficient of 40 mM^−1 cm^−1 at A 460-530 was used to calculate the amount of bilirubin formed. Controls included naive samples in the absence of the NADPH generating system and all the ingredients of the reaction mixture in the absence of graft homogenates. Biliverdin reductase was purified from rat liver, as described in Browne and Ultrich, Mol. Pharmacol. 32:497-504 (1987).

HO-1 [4] = assay: ELISA for HO-1 protein expression in liver; parameters: species or system rat; details: ZnPP = pretreatment then CO perfusion; CO = CO only
Procedure: ELISA for HO-1 protein expression. Livers were homogenized on ice in a Tris-HCl lysis buffer (pH 7.4) containing 0.5% Triton X-100 and protease inhibitors. Flat-bottom microtiter 96-well plates (Nunc) were coated with 7 μg/ml anti-HO-1 mAb (OSA-111, Stressgen, Canada) in PBS for 18 h at room temperature. Unbound Ab was removed by washing (wash buffer: 0.05% Tween 20 in 50 mM phosphate buffer, pH 7.5) and remaining binding sites were blocked by incubation with a 5% BSA/PBS solution (1 h). Recombinant HO-1 (SPP-730) and tissue homogenate were diluted in assay diluent (0.5% BSA/0.05% Tween 20/PBS) and incubated in anti-HO-1 mAb coated wells for 1 h at room temperature. Subsequently, plates were washed three times with wash buffer and incubated with rabbit anti-HO-1 polyclonal antibody (SPA-895, Stressgen; diluted 1:1000 in assay diluent) for 30 min at room temperature. Bound rabbit IgG was detected with a donkey anti-rabbit (gG-HRP conjugate (711-035-152, Jackson Research Laboratories; diluted 1:8000 in assay diluent). Unbound secondary Ab was removed by washing and bound HRP was detected using 1 mg/ml OPD in substrate buffer (0.1% H2O2, 0.1 M citric acid, 0.2 M Na2HPO4, pH 5.0). The color reaction was stopped with 1 M HCl and the optical density at 490 nm was measured.

IFN-γ = assay: Quantitative RT-PCR of cytokine mRNA in collagen-arthritis rats, IFN-γ; details: rat, in vivo
Procedure: (§1) Iodoform and bromoform were compared with methylene chloride as alternative carbon monoxide generating compounds, using the rat collagen arthritis model described in Example 6 above. Briefly, arthritis was induced in a Lovain strain of rats by immunizing the animals with Collagen Type II in Incomplete Freund's Adjuvant. Digitized radiographs were obtained at the completion of the study on day 28. Pharmacokinetics were also determined and the synovial tissue from the inflamed joints of the treated animals was harvested on Day 16 or Day 28 post-immunization. Disease systems were generally evident by Day 10.
(§2) Carboxyhemoglobin levels peaked within a few hours of administration but normalized within 24 hours without cumulative pharmacokinetic consequences. Messenger RNA (mRNA) from the treated animals was purified and specific mRNA levels for cytokines TNF, IL-6, and IFN-γ were quantitated by Quantitative RT-PCR.

IL-6 = assay: Quantitative RT-PCR of cytokine mRNA in collagen-arthritis rats, IL-6; details: rat, in vivo
Procedure: as §1, §2

[5] = system: Louvain rats immunized with collagen type II; assay: Rat collagen-arthritis model; type: in vivo; parameters: arthritic score / Arthritis Score / X-Ray Score: scale not given here; details: for structural damage by blinded radiographic scores: day 28; for efficacy in comparison with methylene chloride (RB2000): rat collagen arthritis model, arthritic score; for arthritic scores in comparison to methylene chloride treated rats: rat, in vivo
Procedure: To assess the therapeutic potential of methylene chloride as a carbon-monoxide generating compound in this disease model, female Louvain rats weighing between 120 and 150 g were injected intradermally with 0.5 mg native chicken collagen type II solubilized in 0.1M acetic acid and emulsified in incomplete Freund's adjuvant. At the onset of disease (around day 10) animals were divided into three groups. One group was treated daily with vehicle, the second and third groups with 100 mg/kg/day and 500 mg/kg/day methylene chloride (p.o.). Severity of disease was evaluated daily using a quantification method based on standardized levels of swelling and periarticular erythema. Animals were sacrificed on day 28. […] Compared to control animals these differences were statistically significant (p<0.02).
as §1

TNF = assay: Quantitative RT-PCR of cytokine mRNA in collagen-arthritis rats, TNF; type: in vivo, rat; details: Day 28
Procedure: as §1, §2

[6] = Blood carboxyhemoglobin after alkyl halide administration; type: in vivo; details: 100 mg/kg
Procedure: The ability of the trihalomethanes iodoform and bromoform to act as carbon monoxide generating compounds was assayed in comparison with methylene chloride.

Lewis rats = assay: Experimental autoimmune encephalomyelitis (EAE) model of multiple sclerosis; type: in vivo, rat; details: daily oral administration from day 8 post-inoculation; scale 0 to 3
Procedure: Multiple sclerosis is characterized by an autoimmune and inflammatory response directed against myelin sheath and oligodendrocytes, resulting in demyelination in the central nervous system. A well-established animal model of multiple sclerosis, experimental autoimmune encephalomyelitis (EAE), was used to examine the effect of the subject alkyl halides on this autoimmune and inflammatory condition of the central nervous system. Lewis rats were given intradermal footpad injections of 50 μg guinea pig myelin basic protein (MBP) and complete Freund's adjuvant (CFA) to induce experimental allergic encephalomyelitis (EAE). Daily oral administration of vehicle, methylene chloride or iodoform was started on day 8 post-inoculation and continued to the end of the study. Animals were monitored and scored on a 0 (normal) to 3 (complete hindlimb paralysis) scale. Daily mean±SD clinical scores are shown.

## COC(=O)[C@@H](N)CCCN=C(N)N[N+](=O)[O-].Cl [L-NAME, NG-nitro-L-arginine methyl ester hydrochloride]
Rat liver [1]
  bile production: increase in bile production
  portal vein resistance: decrease in portal vein resistance
  sGOT release: 191±16 IU/L

## O=C1C(Nc2ccccc2)=CC(=O)c2ncccc21 [LY-83583, 6-anilino-5,8-quinalinedone]
Rat liver [1]
  bile production: comparable
  portal vein resistance: slightly increased
  sGOT release: 186±21 IU/L

## C[S+]([O-])c1ccc(-c2nc(-c3ccncc3)c(-c3ccc(F)cc3)[nH]2)cc1 (centres unmarked) [SB203580]
Rat liver [1]
  bile production: significantly less bile
  portal vein resistance: significant increase in portal vein resistance
  sGOT release: 352±21 IU/L

## C=CC1=C(C)c2cc3[n-]c(cc4[n-]c(cc5nc(cc1n2)C(C)=C5C=C)c(C)c4CCC(=O)O)c(CCC(=O)O)c3C.[Zn+2] [ZnPP]
Rat liver [2]
  Banff score of I/R injury: 1.5±0.0
HO-1 [3]
  HO-1 enzyme activity: 0.95±0.06 nmol of bilirubin/mg/protein/min
HO-1 [4]
  HO-1 protein expression in liver samples (ELISA): 0.85±0.62 ng of HO-1/mg lysate
Rat liver [1]
  bile production: increased bile production
  portal vein resistance: decreased portal vein resistance
  sGOT release: 202±11 IU/L

## BrC(Br)Br [bromoform]
IFN-γ
  mRNA levels for IFN-γ compared to methylene chloride treated rats: substantially lower
IL-6
  mRNA levels for IL-6 compared to methylene chloride treated rats: substantially lower
[5]; Day 28, dose 250 mg/kg
  Arthritis Score: 5.5 ± 0.86
  X-Ray Score: 2.75 ± 0.81
[5]
  structural damage by blinded radiographic scores: significantly inhibited structural damage
  efficacy in comparison with methylene chloride (RB2000): superior efficacy
  arthritic scores in comparison to methylene chloride treated rats: significantly lower
TNF
  mRNA levels for TNF compared to methylene chloride treated rats: higher
[6]
  COHb level in comparison with the same amount of methylene chloride: higher COHb level

## IC(I)I [iodoform]
IFN-γ
  mRNA levels for IFN-γ compared to methylene chloride treated rats: substantially lower
IL-6
  mRNA levels for IL-6 compared to methylene chloride treated rats: substantially lower
[5]; Day 28, dose 100 mg/kg
  Arthritis Score: 3.62 ± 0.99
  X-Ray Score: 1.50 ± 0.80
[5]; Day 28, dose 175 mg/kg
  Arthritis Score: 3.16 ± 0.99
  X-Ray Score: 1.90 ± 0.64
[5]; Day 28, dose 250 mg/kg
  Arthritis Score: 1.85 ± 0.91
  X-Ray Score: 0.85 ± 0.45
[5]
  structural damage by blinded radiographic scores: significantly inhibited structural damage
  efficacy in comparison with methylene chloride (RB2000): superior efficacy
  arthritic scores in comparison to methylene chloride treated rats: significantly lower
TNF
  mRNA levels for TNF compared to methylene chloride treated rats: higher
[6]
  COHb level in comparison with the same amount of methylene chloride: higher COHb level
Lewis rats
  clinical score / clinical signs: did not display any clinical signs
